Test [1] addresses T1, α-Syn oligomers (Homo sapiens, UniProt P37840).
T1 construct: made in house; host or cells: Escherichia coli BL21
Briefly: Calcein-AM/EthD-1 staining, α-Syn oligomers with C1/C6. It is filed as cell-based. Particulars: SH-SY5Y cells. From the text: It has been shown that α-Syn mutants that form oligomers preferentially are more toxic and kill dopaminergic neurons in animal models as compared to fibril forming mutants. Therefore, compounds that effectively reduce the toxicity of oligomers could be beneficial for the treatment of PD. In the present study, we tested the effect of curcumin and its analogs on the toxicity, hydrophobic exposure and morphology of α-Syn oligomers isolated using size exclusion chromatography (SEC). The toxicity of α-Syn oligomers in presence and absence of curcumin/analogs were initially tested using MTT assay. […] As previously it has been proposed that curcumin reduces the oligomers toxicity by altering their exposed hydrophobic surface, we also measured the hydrophobic surface exposure of preformed α-Syn oligomers incubated with curcumin and its analogs.
For this assay, SH-SY5Y cells were seeded in 96 well plate and incubated with identical concentrations of oligomers/fibrils (as used in MTT assay) in absence and presence of curcumin and its analogs for 36 h in 5% CO2 incubator at 37 °C. […] Calcein-AM/Ethidium homodimer-1 signal was then checked and imaged with an inverted fluorescence microscope (Leica DMi8). […] The free calcein emits strong fluorescence signal at ~535 nm, which could be easily observed in the green channel of a microscope. […]

Test [2] concerns the target T2, preformed α-Syn fibrils (Homo sapiens, UniProt P37840).
T2 construct: made in house; host or cells: Escherichia coli BL21
The experiment in a line: LDH cytotoxicity assay of preformed α-Syn fibrils incubated with curcumin analogs. It is filed as cell-based. Particulars: fibrils incubated with analog 48 h; SH-SY5Y cells. On the procedure:
The concentration of the fibrils was determined by subtraction of supernatant concentration from the original concentration of α-Syn kept for fibrillation.
The percent LDH release was plotted as difference in the absorbance value of 490 nm and 690 nm, considering 100% release for the TritonX-100 treated cells.

A further test has as its target T3, α-Syn (Homo sapiens, UniProt P37840).
T3 construct: made in house; host or cells: Escherichia coli BL21
The experiment in a line: TEM of α-Syn aggregates formed in presence of analogs. It is filed as biochemical. As for the experimental part: Subsequently, we examined the effect of these analogs on α-Syn oligomerization by time dependent static light scattering experiment. […] After aggregation, TEM study was done to determine the effects of these analogs on the morphology of the resultant aggregates.
(§1) The samples were then washed thrice with autoclaved MQ. The samples were then stained with 10 μl of uranyl formate 1% (w/v) and incubated in dark for 10 min. The EM image of each sample was acquired at 120 kV with magnifications in the range of 26,000X and 43,000X using a transmission electron microscope (TECNAI12 D312 FEI, Netherlands).

The target of test [3] is T1, α-Syn oligomers. Briefly: Binding affinity to α-Syn oligomers by curcumin analog fluorescence. Particulars: compound fluorescence; read-out: dissociation constant (Kd) for α-Syn oligomers. As for the experimental part:
Immediately after incubation, fluorescence study was performed (for the excitation and emission ranges for each compounds, see Fig. S1). Experiments were performed using FluoroMax-4 spectrofluorometer (HORIBA JobinYvon) with excitation and emission slit widths of 5 nm.
The data were analyzed in Graphpad Prism software according to established method as used previously.

In test [4] the target is T4, preformed α-Syn amyloid fibrils (Homo sapiens, UniProt P37840).
T4 construct: made in house; host or cells: Escherichia coli BL21
Briefly: TEM of preformed α-Syn fibrils with analogs. The note with it: after 48 h incubation with analog. It is filed as biochemical. As for the experimental part:
as §1

For test [5], the target named is T2, preformed α-Syn fibrils. Briefly: CD spectroscopy of preformed α-Syn fibrils with analogs. Type of test: biochemical. The note with it: 0 h and 48 h of incubation. On the procedure: Further, the effect of curcumin analogs on the secondary structure of protein in preformed amyloid fibrils was studied by circular dichroism (CD) spectroscopy at 0 h and after 48 h of incubation. […] To further validate this, Fourier transform infrared spectroscopy (FTIR) was also performed with these samples, where spectra were recorded from 1500 to 1800 cm^−1.The region characteristic of protein secondary structures (1600–1700 cm^−1) was deconvoluted and the peaks were assigned according to published reports. FTIR spectra in the 1600–1700 cm^−1 region of preformed α-Syn fibrils in absence and presence of curcumin and its analogs are presented in Figs 4B and S4 and their percentage of secondary structures are shown in Table-S1.
20 μl of protein solution from 80 μM stock was diluted to 200 μl in 20 mM MES buffer, pH 6.0 with 0.01% NaN3 such that final protein concentration becomes 8 μM. The protein solution was then placed into a quartz cell (Hellma, Forest Hills, NY) of 0.1 cm path-length. Spectra were recorded using JASCO-810 instrument at 25 °C. Spectra acquisition was over the wavelength range of 198–260 nm with the scan speed of 100 nm/min, bandwidth 1 nm, data pitch 1 nm and response time of 1 sec. Processing of raw data was done by subtraction of buffer spectra and subsequently smoothing according to the manufacturer’s instructions.

With `COc1cc(/C=C/C(=O)CC(=O)/C=C/c2ccc(OCc3ccccc3)c(OC)c2)ccc1OCc1ccccc1` [C6], the “ethidium homodimer staining with α-Syn oligomers” value on α-Syn oligomers [1] is reported as “less ethidium homodimer staining”. For the same molecule, the “effect on cell death by preformed α-Syn fibrils, LDH” value on preformed α-Syn fibrils [2] is reported as “decrease in cell death”. For the same molecule, at α-Syn, the “average fibril thickness of fibrils formed in presence of analog” value is “more in comparison to fibrils formed in presence of other analogs”. Besides, on α-Syn oligomers [3], the Kd is 16.1 ± 3.81 µM. Further, the “fibril morphology/thickness of preformed α-Syn fibrils (TEM, words)” value in test [4] is given as “clustering was more”. The “secondary structure of preformed α-Syn fibrils by CD” value on preformed α-Syn fibrils [5] is reported as “remains unaltered”.

For orientation: Kd means the equilibrium constant for the complex coming apart.

The record behind these values is publication PMC4919791, “Effect of curcumin analogs onα-synuclein aggregation and cytotoxicity” (Scientific Reports, 2016).
